Laboratory results published in ChEMBL document CHEMBL3217632, “Water soluble flavonol prodrugs that protect against ischaemia-reperfusion injury in rat hindlimb and sheep heart” (Medchemcomm, 2011).
pIC50: −log10 of the molar value. Each block holds one molecule with its values, some of them ahead of it. Calls of active or inactive are those of the source. No cut-off for these calls is given here.

Key:
Thoracic aorta [1] = assay: Vasorelaxant activity in Sprague-Dawley rat thoracic aorta with intact endothelium assessed as inhibition of Ca2+-induced contraction after 20 mins in presence of alkaline phosphatase; format: functional, tissue-based; settings: for pIC50: Rattus norvegicus, Sprague-Dawley, Thoracic aorta, 20 min
Rattus norvegicus [2] = species on record: Rattus norvegicus; assay: Cardiotoxicity in Sprague-Dawley rat hindquarters ischemia/reperfusion model assessed as change in mean arterial pressure measured following ischemia/reperfusion; format: toxicity, organism-based, Artery; settings: in vivo
Rattus norvegicus [3] = species on record: Rattus norvegicus; assay: Cardiotoxicity in Sprague-Dawley rat hindquarters ischemia/reperfusion model assessed as change in heart rate measured following ischemia/reperfusion by tachometer analysis; format: toxicity, organism-based; settings: in vivo
Thoracic aorta [4] = assay: Inhibition of superoxide anion production in Sprague-Dawley rat thoracic aorta with intact endothelium by lucigenin-based chemiluminescence analysis in presence of NADPH and alkaline phosphatase; format: functional
Rattus norvegicus [5] = assay: Cardioprotective activity in iv dosed Sprague-Dawley rat hindquarters ischemia/reperfusion model assessed as decrease in circulating LDH level administered as bolus injection 5 mins prior to reperfusion by spectrophotometric analysis; format: functional, organism-based
Ovis aries [6] = assay: Cardioprotective activity in merino sheep ischemia/reperfusion injury model assessed as decrease in infarct size at 6.6 mg/kg, iv administered as bolus dose at 10 mins prior to reperfusion measured 3 hrs post-reperfusion by triphenyltetrazolium chloride staining; format: functional, organism-based; set-up: dose 6.6 mg/kg
Thoracic aorta [7] = assay: Vasorelaxant activity in Sprague-Dawley rat thoracic aorta with intact endothelium assessed as Ca2+-induced contraction after 20 mins in absence of alkaline phosphatase; format: functional, tissue-based
[8] = Aqueous solubility of the compound; format: physicochemical; settings: water (aqueous)
Thoracic aorta [9] = assay: Vasorelaxant activity in Sprague-Dawley rat thoracic aorta with intact endothelium assessed as inhibition of Ca2+-induced contraction after 20 mins; format: functional, tissue-based; settings: for pIC50: Rattus norvegicus, Sprague-Dawley, Thoracic aorta, 20 min
Thoracic aorta [10] = assay: Inhibition of superoxide anion production in Sprague-Dawley rat thoracic aorta with intact endothelium by lucigenin-based chemiluminescence analysis in presence of NADPH; format: functional
Thoracic aorta [11] = assay: Vasorelaxant activity in Sprague-Dawley rat thoracic aorta with intact endothelium assessed as Ca2+-induced contraction after 20 mins in absence of butyrylcholinesterase; format: functional, tissue-based
[12] = Solubility of the compound in aqueous sodium carbonate; format: physicochemical
Thoracic aorta [13] = assay: Inhibition of superoxide anion production in Sprague-Dawley rat thoracic aorta with intact endothelium by lucigenin-based chemiluminescence analysis in presence of NADPH and absence of butyrylcholinesterase; format: functional, tissue-based
Thoracic aorta [14] = assay: Inhibition of superoxide anion production in Sprague-Dawley rat thoracic aorta with intact endothelium pretreated with butyrylcholinesterase for 1 hr by lucigenin-based chemiluminescence analysis in presence of NADPH; format: functional
Thoracic aorta [15] = assay: Vasorelaxant activity in Sprague-Dawley rat thoracic aorta with intact endothelium assessed as inhibition of Ca2+-induced contraction pretreated with butyrylcholinesterase for 1 hr; format: functional, tissue-based; settings: for pIC50: Rattus norvegicus, Sprague-Dawley, Thoracic aorta
Ovis aries [16] = assay: Cardioprotective activity in merino sheep ischemia/reperfusion injury model assessed as infarct size at 5 mg/kg, iv administered as 20 mins infusion at 10 mins prior to reperfusion measured 3 hrs post-reperfusion by triphenyltetrazolium chloride staining (reference value: 80 +/-3%); format: functional
Ovis aries [17] = assay: Cardioprotective activity in iv dosed merino sheep ischemia/reperfusion injury model assessed as circulating LDH level measured 2 hrs post-reperfusion (reference value: 604 +/-58 U/L); format: functional
Plasma = assay: Prodrug conversion in Sprague-Dawley rat plasma assessed as 3',4'-dihydroxyflavonol formation at 6.6 mg/kg, iv measured within 2 mins of drug administration by LC-MS/MS analysis; format: ADME, organism-based; set-up: dose 6.6 mg/kg, route intravenous; settings: in vivo
Ovis aries [18] = assay: Cardioprotective activity in merino sheep ischemia/reperfusion injury model assessed as circulating LDH level 6.6 mg/kg, iv administered as bolus dose at 10 mins prior to reperfusion measured 3 hrs post-reperfusion by automated analyzer (reference value: 152 +/-50 U/L); format: functional

pIC50 (Thoracic aorta [1]): 5.40
solubility [8]: > 200 mg/mL
SMILES: O=c1c(OP(=O)([O-])[O-])c(-c2ccc(O)cc2)oc2ccccc12.[Na+].[Na+]
Rmax (Thoracic aorta [1]): 63%
Activity (Rattus norvegicus [2]): Non-toxic
Activity (Rattus norvegicus [3]): Non-toxic
Rmax (Thoracic aorta [4]): 27%
Activity (Rattus norvegicus [5]): Active
Activity (Ovis aries [6]): Active
Activity (Thoracic aorta [7]): inactive

pIC50 (Thoracic aorta [9]): 4.93
solubility [8]: < 1 mg/mL
SMILES: O=c1c(O)c(-c2ccc(O)cc2)oc2ccccc12
Rmax (Thoracic aorta [9]): 70%
Rmax (Thoracic aorta [10]): 62%

SMILES: O=C(O)CCCCC(=O)Oc1c(-c2ccc(O)cc2)oc2ccccc2c1=O
Activity (Thoracic aorta [11]): inactive
solubility [12]: > 50 mg/mL
inhibition (Thoracic aorta [13]): inactive
Rmax (Thoracic aorta [14]): 30%
Rmax (Thoracic aorta [15]): 70%
pIC50 (Thoracic aorta [15]): 4.45

pIC50 (Thoracic aorta [9]): 5.02
SMILES: O=c1c(O)c(-c2ccc(O)c(O)c2)oc2ccccc12
Activity (Ovis aries [16]): 50%
Rmax (Thoracic aorta [9]): 89%
Activity (Rattus norvegicus [2]): Non-toxic
Activity (Rattus norvegicus [3]): Non-toxic
Rmax (Thoracic aorta [10]): 84%
Activity (Ovis aries [17]): 405 U/L

SMILES: O=C(O)CCCCC(=O)Oc1c(-c2ccc(O)c(O)c2)oc2ccccc2c1=O
Activity (Thoracic aorta [11]): inactive
solubility [12]: > 50 mg/mL
Activity (Rattus norvegicus [2]): Non-toxic
Activity (Rattus norvegicus [3]): Non-toxic
Drug metabolism (Plasma): Active
Activity (Ovis aries [18]): 70 U/L
Activity (Rattus norvegicus [5]): Active
inhibition (Thoracic aorta [13]): inactive
Rmax (Thoracic aorta [14]): 70%
Activity (Ovis aries [6]): Active
Rmax (Thoracic aorta [15]): 76%
pIC50 (Thoracic aorta [15]): 4.47

pIC50 (Thoracic aorta [9]): 5.37
solubility [8]: < 1 mg/mL
SMILES: O=c1c(O)c(-c2ccccc2)oc2ccccc12 [FLAVONOL]
Rmax (Thoracic aorta [9]): 19%
Rmax (Thoracic aorta [10]): 20%

pIC50 (Thoracic aorta [1]): 5.33
solubility [8]: > 200 mg/mL
SMILES: O=c1c(OP(=O)([O-])[O-])c(-c2ccccc2)oc2ccccc12.[Na+].[Na+]
Rmax (Thoracic aorta [1]): 40%
Rmax (Thoracic aorta [4]): 36%
Activity (Thoracic aorta [7]): inactive
